Measured values as given in US20190002555A1, “ANTIGEN-BINDING PROTEINS TO MARINOBUFAGENIN” (REGENERON PHARMACEUTICALS, INC., priority 2015, published 2019).
pIC50: −log10 of the molar value. Where “and” joins values, the source holds several entries; their conditions need not be identical. Identical values can stand only once. Like-named read-outs stand apart in the source and are kept apart here.

Molecular target: T1, Na+/K+ ATPase (Homo sapiens, UniProt P05023)
T1 construct: An in-vitro cell-based assay was developed to assess the regulation of Na+/K+ ATPase by MBG using HEK293 cells; host or cells: HEK293/hnAChR α3/β4 cells
Test: Membrane potential assay: MBG inhibition of membrane repolarization
Type: cell-based
Source text: An in-vitro cell-based assay was developed to assess the regulation of Na+/K+ ATPase by MBG using HEK293 cells. HEK293 has Na+/K+ ATPase activity and contains the α1 isoform (Kochskämper et al. 1997, Biochim. Biophys. Acta 1325: 197-208). […] HEK293 cells expressing human neuronal nicotinic acetylcholine receptors (nAChR) subunits α3 and β4 (Accession # M37981 and #NM_000750), HEK293/hnAChR α3/β4 (Millipore) were used. The nAchR heterodimer is a ligand-gated ion channel that mediates influx of Na+ upon ligand binding (Corringer et al. 2000, Annu. Rev. Pharmacol. Toxicol. 40: 431-458). […] MBG was added to inhibit the repolarization of the cell through its effects on Na^+/K^+ ATPase. Changes in the membrane potential of the cells were monitored using a fluorescent dye whose intensity increases when the cells are depolarized and decreases as the cells are repolarized.
For the bioassay, cells were detached with Enzyme Free Cell Dissociation Buffer (Millipore) seeded into 96-well assay plates at 50,000 cells/well in Opti-MEM™ assay buffer supplemented with 0.1% FBS, penicillin/streptomycin and L-glutamine (known from this point forward as Opti-MEM™), and then incubated at 37° C. in 5% CO2 overnight. […] The plate was then placed into the FLIPR^Tetra® (Molecular Devices) and kinetic readings were collected at 25° C. […]

`C[C@]12CC[C@H](O)C[C@@]1(O)CC[C@@H]1[C@@H]2CC[C@]2(C)[C@@H](c3ccc(=O)oc3)CC3O[C@@]312` (stereo partly drawn) [MBG, 3β, 5β-dihydroxy-14,15-epoxybufadienolide] was tested, and the IC50 (IC50 [M] of MBG (@ 100 nM Epibatidine)) was 6.6e-07 M and 4.5e-07 M and the pIC50 (read-out: IC50 of MBG) was 6.15 and 6.35 and 6.18.
